Data set [1] relates to E. floccosum isolate #1. The data set can be described thus: Antifungal susceptibility testing, broth dilution (NCCLS M38-A). In kind it is cell-based, Epidermophyton floccosum. As to conditions: 80% reduction in turbidity. The protocol:
(§1) Antifungal susceptibility testing was accomplished according to the methods outlined in the National Committee for Clinical Laboratory Standards, M38-A “Reference Method for Broth Dilution Antifungal Susceptibility Testing of Conidium-Forming Filamentous Fungi; Approved Standard.” This includes testing in RPMI-1640 with glutamine and without bicarbonate, an inoculum size of 0.4-5×10^4, and incubation at 30 or 35° C. for 48 hours. […] Drug concentrations were 0.03-16 μg/ml for the investigational compounds, 0.015-8 μg/ml for itraconazole and griseofulvin.
(§2) The minimum lethal concentration (MLC) was determined by plating […] from the MIC concentration and each concentration above the MIC. […] When a MIC was obtained, a minimum fungicidal concentration (MFC) was determined to assess the fungistatic/fungicidal nature of the compound. […] The compound is scored as fungistatic if the cells are able to resume growth and fungicidal if no regrowth is possible because the compound had killed the organisms.
(In general: Dilution methods test growth across graded concentrations, often in twofold steps.)

The subject of data set [2] is E. floccosum isolate #2. The data set is described as above. Format: cell-based, Epidermophyton floccosum. How it is done: as §1, §2
Data set [3] deals with T. mentagrophytes isolate #1. Described as above. As to conditions: for MIC: 80% reduction in turbidity. Format: cell-based, Trichophyton mentagrophytes. How it is done: as §1, §2
In data set [4] the test system is T. mentagrophytes isolate #2. The description is as above. In kind it is cell-based, Trichophyton mentagrophytes. The conditions noted are these: 80% reduction in turbidity. The protocol:
as §1, §2

Data set [5] concerns T. rubrum isolate #2. The description is as above. In kind it is cell-based, Trichophyton rubrum. As to conditions: for MIC: 80% reduction in turbidity. How it is done: as §1, §2
Data set [6] has as its system T. rubrum isolate #1. Described as above. Format: cell-based, Trichophyton rubrum. The conditions noted are these: T. rubrum isolate #1; for MIC: 80% reduction in turbidity. The protocol:
as §1, §2

For data set [7], the system named is HuVEC monolayer. Kind of data set: HuVEC monolayer permeability to FITC-Dextran. Format: cell-based, human. As to conditions: FITC-Dextran. The text has this:
This vascular collapse is preceded by a rapid induction of vascular cell permeability initially to electrolytes and soon after to large molecules. The enhanced permeability of HuVEC cells to a fluorescent-labeled dextran is used as a proxy assay for vascular collapse.

Data set [8] relates to microtubules in A549 cells. The data set can be described thus: Immunofluorescence staining of microtubules. Format: cell-based, human. As to conditions: 6 hours incubation. The protocol: Immunocytochemical staining was performed using the method described by Yahara, I. et al., Cell (1978) 15, 251-259. A549 cells were cultured on glass coverslips and incubated with the test drug for 6 hours. The cells were then fixed with 3.7% formaldehyde for 30 min, permeabilized with 0.2% Triton X-100 for 5 min, and incubated with a mouse monoclonal antibody against α-tubulin (Calbiochem®, Oncogene Research Products, Cambridge, Mass.), followed by incubation with fluorescein isothiocyanate-conjugated goat anti-mouse IgG from Cosmo Bio Co., (Tokyo, Japan), and the cells were examined under an immunofluorescent microscope.

For data set [9], the system named is tubulin in Human umbilical vein endothelial cells (HuVEC). Kind of data set: Action on microtubule function, staining for α-tubulin. In kind it is cell-based. As to conditions: 2 μM, thirty minutes exposure.
Data set [10] has as its system MES-SA (Taxol Sensitive) human uterine sarcoma tumor cell line. The data set can be described thus: Drug resistant cell line pair, cytotoxicity. In kind it is cell-based. The conditions noted are these: CsA Pretreat versus No CsA. The source says: MES-SA (Taxol Sensitive) and MES-SA DX (Taxol Resistant). This cell line expresses elevated mdr-1 mRNA and P-glycoprotein (an extrusion pump mechanism). Pretreatment with cyclosporin-A (CsA) blocks P-glycoprotein and reinstates activity in the resistant cell line for those compounds for which the resistance is due to elevated P-glycoprotein.

In data set [11] the test system is A. fumigatus isolate #2. The data set can be described thus: Antifungal susceptibility testing, broth dilution (NCCLS M38-A). Format: cell-based. The conditions noted are these: Aspergillus fumigatus, 80% reduction in turbidity. How it is done:
as §1, §2

Data set [12] deals with P388 cells. Kind of data set: P388 proliferation, Alamar Blue assay. The conditions noted are these: Mus musculus, P388; Alamar Blue assay (Table 4); read-out: IC50 for P388 Proliferation. Format: cell-based, murine. How it is done:
For this example, the Alamar Blue™ assay was performed as follows. Exponentially growing P388 cells were seeded into 96-well tissue culture plates (5×10^3 cells/100 μl/well) and cultured in RPMI 1640 medium supplemented with 10% fetal bovine serum for 16 h. Compounds (DMSO solution) were then added to each well at various concentrations, and the cells were cultured for an additional 48 h. Living cells were counted using Alamar Blue™ (BioSource International, Camarillo, Calif.), according to the method of Ahmed, S. A. et al., J. Immunol. Methods, 170, 211 (1994).

Data set [13] has as its system Microtubule protein from bovine brain. Kind of data set: Microtubule protein polymerization assay (turbidity). In kind it is biochemical. As to conditions: microtubule protein 1.5 mg/ml (Table 4); read-out: IC50 for Microtubule Protein Polymerization. How it is done:
Microtubule protein was prepared from bovine brain tissue by two cycles of assembly and disassembly according to the method of Tiwari, S. C. et al. Anal. Biochem, (1993), 215, 96-103. Tubulin was purified from microtubule protein by phosphocellulose chromatography see Algaier, J. et al. Biochim. Biophys. Acta, (1988), 954, 235-43, and tubulin purity was evaluated by polyacrylamide gel electrophoresis, as in Laemmli, U.K., Nature, (1970), […], 680-85. […] Protein concentrations were determined using the Coomassie® Protein Assay Reagent from Pierce (Rockford, Ill.).
Polymerization of microtubule protein was monitored by an increase in turbidity at 37° C. in microtubule assembly buffer containing 100 mM MES, 0.5 mM MgCl2, 1 mM EGTA and 1 mM GTP. See Johnson, K. A. et al., J. Mol. Biol., (1977), 117, 1-31. Polymerization of purified tubulin was measured using the same method except the microtubule assembly buffer contained 4 M glycerol. See Lee, J. C. et al., Biochemistry, (1975), 14, 5183-87. Microtubule protein and tubulin polymerization was initiated by a temperature shift from 0° C. to 37° C. and turbidity was measured on a DU-20 thermocontrolled spectrophotometer from Beckman (Fullerton, Calif.) at 360 nm. Drugs were dissolved in dimethyl sulfoxide (DMSO), which was used in all experiments at a final concentration of 2% (v/v).
For this example, the microtubule protein polymerization assay was performed as follows. Microtubule protein was prepared from bovine brain tissue by two cycles of assembly and disassembly. Polymerization of microtubule protein was monitored by an increase in turbidity at 37° C. in microtubule assembly buffer containing 100 mM MES, 0.5 mM MgCl2, 1 mM EGTA and 1 mM GTP. The polymerization of microtubule protein was initiated by a temperature shift from 0° C. to 37° C. Turbidity was measured on a thermo-controlled spectrophotometer (Beckman DU-20, Fullerton, Calif.) at 360 nm. Compounds were dissolved in DMSO, which was used in all experiments at a final concentration of 2% (v/v).

For data set [14], the system named is A. fumigatus isolate #1. Kind of data set: Antifungal susceptibility testing, broth dilution (NCCLS M38-A). Format: cell-based. As to conditions: Aspergillus fumigatus, 80% reduction in turbidity. How it is done:
as §1, §2

Data set [15] has as its system bovine brain tubulin. Kind of data set: [^3H]CLC binding to tubulin and competition assay. The protocol: [^3H]CLC binding to tubulin was evaluated by the ultrafiltration method of Takahashi, M., et al., Biochim. Biophys. […] The concentration of unbound [^3H]CLC in the filtrates was determined using a EcoLite™(+) liquid scintillator from ICN Pharmaceuticals Inc. (Costa Mesa, Calif.). Specific bound [^3H]CLC concentrations were determined by adding an excess (×100) of unlabeled CLC to the reaction mixture.
For the competition assay, bovine brain tubulin (0.2 mg/ml) was incubated in the microtubule assembly buffer with 0.5 μM [^3H]CLC and various concentrations of competitors for 20 min at 37° C. [^3H]CLC binding was measured as described above.

The test system of data set [16] is PARP in Jurkat cells. The data set can be described thus: Cleavage of poly(ADP-ribose) polymerase (PARP), western blotting. The conditions noted are these: 10 hours after exposure. Format: cell-based. The text has this: In order to assess the ability of t-butyl-phenylahistin to induce apoptosis in Jurkat cells, cleavage of poly(ADP-ribose) polymerase (PARP) was monitored. PARP is a 116 kDa nuclear protein that is one of the main intracellular targets of Caspase-3. The cleavage of PARP generates a stable 89 kDa product, and this process can be easily monitored by western blotting. Cleavage of PARP by caspases is one of the hallmarks of apoptosis, and as such serves as an excellent marker for this process.
In general terms: Immunoblotting shows a protein as a band on a membrane.

In data set [17] the test system is DU-145 human prostate tumor. The data set can be described thus: DU-145 Human Prostate Tumor Xenograft Model. Format: in vivo, nude mice. As to conditions: Taxotere alone. How it is done:
Male mice were implanted s.c. by trocar with fragments of DU-145 tumors harvested from s.c. growing tumors in nude male mice hosts. When the tumors reached ˜5 mm×5 mm ( at about 13-17 days) the animals were matched into treatment and control groups. The remainder of the study proceeded as for the HT-29 model, using taxotere as the standard chemotherapy agent.
In this model unless otherwise noted for the individual study, test compound was administered via the intraperitoneal route on Days 1, 3, 5, 8 and 11 (q3d×5); taxotere was administered intravenously on Days 1, 3 and 5 (q2d×3).
The study involved an assessment of t-butyl-phenyalhistin alone and in combination with taxotere.
For orientation: A xenograft is tissue or cells of one species grown in another, often human tumour cells in immunodeficient mice.

The mark [18] stands for this setting: Trichophyton mentagrophytes, read-out: MIC.
Setting [19] is: Trichophyton rubrum, read-out: MIC.

Converted amounts (≈) assume the structure as drawn. “And” between values parts separate entries of the source, which are not always exact repeats. Equal entries are not always repeated. Where two headings read alike, the source gives them in different places.

As a reminder, the MIC is the least concentration at which growth counts as inhibited. In the case of `C=CC(C)(C)c1[nH]cnc1/C=C1\NC(=O)[C@H](Cc2ccccc2)NC1=O` [NPI2350], the MIC was above 16 µg/mL in data set [1]; 16 µg/mL (≈ 45.7 µM) in data set [3]; above 16 µg/mL in data set [4]; 0.16 µg/mL (≈ 0.457 µM) in data set [5]; above 16 µg/mL in data set [6]. Moreover, the “MICs and MFCs” value in data set [2] was above 16 µg/mL. The MFC in data set [3] and in data set [5] was above 16 µg/mL in each case.
Take `CC(=O)O[C@H]1C(=O)[C@@]2(C)[C@H]([C@H](OC(=O)c3ccccc3)[C@]3(O)C[C@H](OC(=O)[C@H](O)[C@@H](NC(=O)c4ccccc4)c4ccccc4)C(C)=C1C3(C)C)[C@]1(OC(C)=O)CO[C@@H]1C[C@@H]2O` [Taxol, paclitaxel, reference compound]: the HuVEC monolayer permeability result in data set [7] is “inactive”. In addition, the “microtubule structure (anti α-tubulin staining)” value in [8] was “thick microtubule bundles and multiple bright fluorescent aster formation”. Besides, in data set [9], the microtubule depolymerization entry is listed as “did not induce microtubule depolymerization”. Further, the “Ratio No CsA” value in [10] was 0.6 and 0.4.
In the case of `COC1=CC(=O)C[C@@H](C)[C@]12Oc1c(Cl)c(OC)cc(OC)c1C2=O` [griseofulvin, reference compound], the MIC in [11] is 0.5 µg/mL (≈ 1.42 µM); in data set [1] (Epidermophyton floccosum, read-out: MIC), 2 µg/mL (≈ 5.67 µM); in data set [3] (setting [18]) it was 1 µg/mL (≈ 2.83 µM); in [4] (setting [18]), 2 µg/mL (≈ 5.67 µM); in [5] (setting [19]) it was below 0.015 µg/mL; in [6] (setting [19]), 0.5 µg/mL (≈ 1.42 µM). Besides, the MFC in data set [2] (Epidermophyton floccosum, read-out: MICs and MFCs) worked out at 4 µg/mL (≈ 11.3 µM).
For `CC(C)(C)c1[nH]cnc1/C=C1\NC(=O)[C@H](Cc2ccccc2)NC1=O` [NPI2460], the MIC in [1] was above 16 µg/mL; in data set [3], 4 µg/mL (≈ 11.8 µM); in data set [4], above 16 µg/mL; in data set [5], below 0.03 µg/mL; in [6] it was below 0.03 µg/mL. Also, the “MICs and MFCs” value in [2] was above 16 µg/mL. Also, the MFC was above 16 µg/mL in [3], below 0.03 µg/mL in data set [5] and 0.125 µg/mL (≈ 0.369 µM) in data set [6].
A word on the melting point: it is the temperature of the solid-liquid transition. For the compound `Cc1[nH]cnc1C=C1NC(=O)C(Cc2ccccc2)NC1=O` (centres unmarked) [Compound 9], the melting point is 285 to 286 °C (dec.). For the same compound, in data set [12], the IC50 was found to be 7.5 µM. In [13], the IC50 was above 200 µM.
`CCC(C)n1ncn(-c2ccc(N3CCN(c4ccc(OCC5COC(Cn6cncn6)(c6ccc(Cl)cc6Cl)O5)cc4)CC3)cc2)c1=O` (centres unmarked) [itraconazole, reference compound]: the lowest concentration to inhibit growth in data set [14] (MIC) was 1 µg/mL (≈ 1.42 µM).
As for `CC[C@]1(O)C[C@@H]2CN(CCc3c([nH]c4ccccc34)[C@@](C(=O)OC)(c3cc4c(cc3OC)N(C)[C@H]3[C@@](O)(C(=O)OC)[C@H](OC(C)=O)[C@]5(CC)C=CCN6CC[C@]43[C@@H]65)C2)C1` [VLB, vinblastine, reference compound], the “effect on CLC binding to tubulin” value in [15] is on record as “slightly enhanced”.
On to `C=CC(C)(C)c1nc[nH]c1/C=C1\NC(=O)C(Cc2ccccc2)NC1=O` (centres unmarked) [Halimide], for which the “cleavage of PARP” value in data set [16] is on record as “active at inducing cleavage of PARP”.
For `CC(=O)O[C@@]12CO[C@@H]1C[C@H](O)[C@@]1(C)C(=O)[C@H](O)C3=C(C)[C@@H](OC(=O)[C@H](O)[C@@H](NC(=O)OC(C)(C)C)c4ccccc4)C[C@@](O)([C@@H](OC(=O)c4ccccc4)[C@H]21)C3(C)C` [Taxotere, reference compound], in data set [17], the “NCI established criterion for a positive effect (TGA 58%)” value is recorded as “did not reach the NCI established criterion”.

The values above are taken from US20040102454A1, “Phenylahistin and the phenylahistin analogs, a new class of anti-tumor compounds” (priority 1998, published 2004).
